# Experimental data: ChEMBL document CHEMBL5528064, “Invention of MK-7845, a SARS-CoV-2 3CL Protease Inhibitor Employing a Novel Difluorinated Glutamine Mimic” (J Med Chem, 2024)
# Columns and labels:
# [1] = molecular target: T1, Nuclear receptor subfamily 1 group I member 2 (Homo sapiens, UniProt O75469); assay: Activation of PXR (unknown origin); assay type: toxicity
# T1 sequence (O75469 whole entry): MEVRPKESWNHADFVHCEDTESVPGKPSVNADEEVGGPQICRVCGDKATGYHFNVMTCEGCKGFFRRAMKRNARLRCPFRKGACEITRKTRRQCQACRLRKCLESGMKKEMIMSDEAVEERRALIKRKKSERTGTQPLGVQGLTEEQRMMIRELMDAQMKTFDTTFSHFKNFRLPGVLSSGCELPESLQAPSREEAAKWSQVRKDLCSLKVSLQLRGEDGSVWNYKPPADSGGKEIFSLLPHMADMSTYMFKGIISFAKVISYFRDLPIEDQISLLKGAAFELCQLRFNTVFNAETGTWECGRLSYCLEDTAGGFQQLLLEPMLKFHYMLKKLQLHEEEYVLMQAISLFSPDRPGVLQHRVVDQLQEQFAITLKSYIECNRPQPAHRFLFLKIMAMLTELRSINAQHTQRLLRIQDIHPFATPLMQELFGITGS
# [2] = MRT in dog at 3 mg/kg, po or 1 mg/kg, iv measured upto 24 hrs by LC-MS analysis; assay type: ADME, organism-based, Canis lupus familiaris; settings: in vivo
# [3] = Oral bioavailability in rat at 3 mg/kg measured upto 24 hrs by LC-MS analysis; assay type: ADME, organism-based; settings: in vivo
# [4] = molecular target: T2, PXR (nuclear receptor subfamily 1 group I member 2) (Homo sapiens, UniProt O75469); assay: Activation of PXR (unknown origin) assessed as maximal activation at 30 uM relative to control; assay type: toxicity; settings: read-out: Activity
# T2 sequence (O75469 whole entry): T1 sequence (O75469 whole entry)
# [5] = molecular target: T3, Cytochrome P450 1A2 (Homo sapiens, UniProt P05177); assay: Induction of CYP1A2 in human hepatocytes assessed as increase in CYP1A2 mRNA level at 20 uM measured after 48 hrs by PCR analysis relative to control; assay type: ADME, cell-based, Hepatocyte
# T3 sequence (P05177 whole entry): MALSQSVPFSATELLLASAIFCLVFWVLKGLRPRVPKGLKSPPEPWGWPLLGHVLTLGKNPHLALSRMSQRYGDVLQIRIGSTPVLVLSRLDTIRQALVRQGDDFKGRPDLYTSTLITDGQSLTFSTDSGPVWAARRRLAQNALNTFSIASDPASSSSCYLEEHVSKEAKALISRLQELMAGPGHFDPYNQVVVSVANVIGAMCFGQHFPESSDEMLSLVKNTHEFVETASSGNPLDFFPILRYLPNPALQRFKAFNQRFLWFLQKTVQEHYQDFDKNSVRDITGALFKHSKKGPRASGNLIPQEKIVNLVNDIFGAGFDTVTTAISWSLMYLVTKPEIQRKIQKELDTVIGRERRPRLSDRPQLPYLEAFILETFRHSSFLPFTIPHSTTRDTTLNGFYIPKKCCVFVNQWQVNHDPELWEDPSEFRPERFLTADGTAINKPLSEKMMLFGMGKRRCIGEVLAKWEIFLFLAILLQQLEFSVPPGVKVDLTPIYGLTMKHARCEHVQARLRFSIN
# [6] = molecular target: T4, Cytochrome P450 2B6 (Homo sapiens, UniProt P20813); assay: Induction of CYP2B6 in human hepatocytes assessed as increase in CYP2B6 mRNA level at 20 uM measured after 48 hrs by PCR analysis relative to control; assay type: ADME, cell-based, Hepatocyte
# T4 sequence (P20813 whole entry): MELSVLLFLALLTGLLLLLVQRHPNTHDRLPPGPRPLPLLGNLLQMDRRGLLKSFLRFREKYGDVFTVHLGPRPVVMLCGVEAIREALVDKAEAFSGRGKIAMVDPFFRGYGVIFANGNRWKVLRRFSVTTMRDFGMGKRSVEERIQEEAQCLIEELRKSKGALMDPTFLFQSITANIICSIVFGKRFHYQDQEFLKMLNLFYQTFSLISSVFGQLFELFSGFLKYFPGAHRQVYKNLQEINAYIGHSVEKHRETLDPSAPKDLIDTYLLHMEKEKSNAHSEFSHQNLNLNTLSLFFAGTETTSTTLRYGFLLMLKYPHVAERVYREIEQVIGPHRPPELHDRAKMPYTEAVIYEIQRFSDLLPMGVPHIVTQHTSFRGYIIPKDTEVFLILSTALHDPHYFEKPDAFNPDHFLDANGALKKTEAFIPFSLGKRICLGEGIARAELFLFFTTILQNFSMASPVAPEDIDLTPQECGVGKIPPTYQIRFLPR
# [7] = molecular target: Cytochrome P450 3A4 (Homo sapiens, UniProt P08684); assay: Induction of CYP3A4 in human hepatocytes assessed as increase in CYP3A4 mRNA level at 20 uM measured after 48 hrs by PCR analysis relative to control; assay type: ADME, cell-based, Hepatocyte
# [8] = molecular target: T5, CYP3A (Homo sapiens, UniProt P08684+P20815+P24462+Q9HB55); assay: Time dependent inhibition of CYP3A in human liver microsomes assessed as inhibition constant; assay type: ADME, Microsome
# [9] = Lipophilicity, logD of compound at pH 8 by HPLC analysis; assay type: physicochemical; settings: buffer
# [10] = Apparent permeability in MDCK cells; assay type: ADME, cell-based, Canis lupus familiaris; settings: dog
# [11] = molecular target: T3, Cytochrome P450 1A2; assay: Reversible inhibition of CYP1A2 in human liver microsomes using phenacetin as substrate incubated for 5 mins in presence of NADPH-generating system by LC-MS/MS analysis; assay type: ADME, Microsome
# [12] = molecular target: Cytochrome P450 2C9 (Homo sapiens, UniProt P11712); assay: Reversible inhibition of CYP2C9 in human liver microsomes using diclofenac as substrate incubated for 5 mins in presence of NADPH-generating system by LC-MS/MS analysis; assay type: ADME, Microsome
# [13] = molecular target: Cytochrome P450 2C19 (Homo sapiens, UniProt P33261); assay: Reversible inhibition of CYP2C19 in human liver microsomes using S-mephenytoin as substrate incubated for 5 mins in presence of NADPH-generating system by LC-MS/MS analysis; assay type: ADME, Microsome
# [14] = molecular target: T5, CYP3A; assay: Reversible inhibition of CYP3A in human liver microsomes incubated for 5 mins in presence of NADPH-generating system by LC-MS/MS analysis; assay type: ADME, Microsome
# [15] = Plasma stability in dog assessed as epimerization at 1 uM measured upto 3 hrs by LC-MS/MS analysis; assay type: ADME, cell-free, Canis lupus familiaris
# [16] = Plasma stability in human assessed as epimerization at 1 uM measured upto 3 hrs by LC-MS/MS analysis; assay type: ADME, cell-free
# [17] = Plasma stability in rhesus monkey assessed as epimerization; assay type: ADME, cell-free, Macaca mulatta
# [18] = Plasma protein binding in human assessed as unbound fraction at 1 uM; assay type: ADME, cell-free
# [19] = test system: SARS-CoV-2; assay: Antiviral activity against SARS CoV-2 USA-WA1/2020 infected in B6.Cg-Tg(K18-ACE2)2Prlmn/J mouse assessed as log reduction in plaque-forming units in lung at […], po bid measured on day 4 post inoculation; assay type: functional, Severe acute respiratory syndrome coronavirus 2; settings: time 4 day
# [20] = test system: SARS-CoV-2; assay: Antiviral activity against SARS CoV-2 USA-WA1/2020 infected in B6.Cg-Tg(K18-ACE2)2Prlmn/J mouse assessed as fold reduction in viral load in lung at 500 mg/kg, po bid measured on day 4 post inoculation; assay type: functional, Severe acute respiratory syndrome coronavirus 2; settings: time 4 day
# [21] = test system: SARS-CoV-2; assay: Antiviral activity against SARS CoV-2 USA-WA1/2020 infected in po dosed B6.Cg-Tg(K18-ACE2)2Prlmn/J mouse assessed as reduction in viral RNA level administered orally twice daily and measured on day 4 post inoculation by RT-PCR analysis; assay type: functional, organism-based; settings: Severe acute respiratory syndrome coronavirus 2, dose 100-500 mg/kg, time 4.0 day
# Cytochrome P450 3A4, sequence (P08684 whole entry): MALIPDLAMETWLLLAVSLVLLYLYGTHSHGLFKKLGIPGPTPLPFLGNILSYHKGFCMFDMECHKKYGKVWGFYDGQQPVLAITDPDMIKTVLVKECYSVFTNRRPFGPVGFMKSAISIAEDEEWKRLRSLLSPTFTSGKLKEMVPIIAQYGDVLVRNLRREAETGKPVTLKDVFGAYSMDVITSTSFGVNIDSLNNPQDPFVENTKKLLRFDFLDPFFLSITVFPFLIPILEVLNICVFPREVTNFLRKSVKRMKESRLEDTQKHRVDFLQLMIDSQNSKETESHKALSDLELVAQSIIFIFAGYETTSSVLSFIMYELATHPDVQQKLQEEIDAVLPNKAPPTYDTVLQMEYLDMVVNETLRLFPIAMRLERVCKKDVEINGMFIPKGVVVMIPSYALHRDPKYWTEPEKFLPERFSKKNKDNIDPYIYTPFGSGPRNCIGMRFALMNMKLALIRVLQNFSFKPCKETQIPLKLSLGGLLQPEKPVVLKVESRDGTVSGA
# Cytochrome P450 2C9, sequence (P11712 whole entry): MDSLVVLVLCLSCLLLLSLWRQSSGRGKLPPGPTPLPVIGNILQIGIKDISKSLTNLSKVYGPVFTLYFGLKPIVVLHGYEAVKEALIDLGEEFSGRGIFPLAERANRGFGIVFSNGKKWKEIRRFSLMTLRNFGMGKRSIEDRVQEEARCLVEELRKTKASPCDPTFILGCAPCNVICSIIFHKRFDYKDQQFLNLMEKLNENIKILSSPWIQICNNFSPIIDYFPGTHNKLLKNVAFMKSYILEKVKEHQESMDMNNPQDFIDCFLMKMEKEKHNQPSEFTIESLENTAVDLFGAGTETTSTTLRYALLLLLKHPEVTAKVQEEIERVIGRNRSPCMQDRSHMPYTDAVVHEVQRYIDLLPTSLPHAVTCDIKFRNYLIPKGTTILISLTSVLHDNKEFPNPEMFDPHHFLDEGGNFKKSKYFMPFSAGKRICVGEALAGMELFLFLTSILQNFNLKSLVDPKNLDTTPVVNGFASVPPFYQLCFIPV
# Cytochrome P450 2C19, sequence (P33261 whole entry): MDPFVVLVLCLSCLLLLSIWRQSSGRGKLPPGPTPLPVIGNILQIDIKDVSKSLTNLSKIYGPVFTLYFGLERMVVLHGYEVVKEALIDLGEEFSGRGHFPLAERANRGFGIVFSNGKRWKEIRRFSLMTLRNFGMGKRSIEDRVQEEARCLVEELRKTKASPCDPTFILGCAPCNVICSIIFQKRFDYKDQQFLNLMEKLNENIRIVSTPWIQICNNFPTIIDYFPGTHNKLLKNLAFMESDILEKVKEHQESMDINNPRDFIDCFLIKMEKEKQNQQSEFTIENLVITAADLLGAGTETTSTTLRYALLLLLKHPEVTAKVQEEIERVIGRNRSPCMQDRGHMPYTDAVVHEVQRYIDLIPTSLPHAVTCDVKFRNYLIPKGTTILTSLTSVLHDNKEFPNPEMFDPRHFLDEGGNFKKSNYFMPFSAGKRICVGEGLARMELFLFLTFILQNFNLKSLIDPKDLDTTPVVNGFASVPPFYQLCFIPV
compound,measurement,setting,value
CNC(=O)C(=O)[C@H](CCC(C)(F)F)NC(=O)[C@@H]1[C@H]2CCC[C@H]2CN1C(=O)[C@@H](NC(=O)OC)C(C)(C)C,EC50,[1],> 30 µM
same,MRT,[2],2.5 h
same,bioavailability,[3],65%
same,Emax at 30 µM,[4],29%
same,Activity,[5],< 1%
same,Activity,[6],7%
same,Activity,[7],22%
same,Ki,[8],110 µM
same,logD,[9],2.49
same,Papp,[10],57 nm/s
same,IC50,[11],> 200 µM
same,IC50,[12],> 200 µM
same,IC50,[13],> 200 µM
same,IC50 at 5 min,[14],118 µM
same,Stability,[15],Unstable
same,Stability,[16],Unstable
same,Stability,[17],Unstable
same,fraction unbound at 1 µM,[18],0.27
same,log(activity),[19],1.7
same,fold change (FC),[20],5
same,Activity,[21],Dose-Dependent Effect
